Assay results reported in publication PMC5861052, “Uptake and accumulation of Microcystin-LR based on exposure through drinking water: An animal model assessing the human health risk” (Scientific Reports, 2018).
Values joined by “and” are separate entries in the source; they are usually repeats but may differ in a detail not shown here. Equal values may be shown once.

Experiments:
[1] = assay type: in vivo; details: pig
Experimental: (§1) This study was performed as described previously using twelve male Duroc pigs, six control and six treated pigs. Housing, diet and treatment were as described previously with the following modifications:
(§2) Animals were subjected to a fourteen-day acclimatization period prior to assignment to control or treated groups. Over the study period, each animal from the treatment group received a daily dose of 2 µg toxin/kg body weight MC-LR by oral gavage, 50 times the provisional WHO TDI, with the average dose for the six treated animals outlined in Table 4
(§3) , with the MC-LR for dosing prepared as described above. At day 40 (approximately 5 weeks) treated and control animals were euthanized. Sample collection and storage was as outlined for experiment 1.
(§4) Porcine tissue samples (50 mg) were weighed into 50 mL round bottomed flasks with the conversion and subsequent enrichment of MMPB carried out as outlined in ‘Analysis of conjugated MC-LR in porcine tissue’ (see Supplementary Information online). Samples were initially screened for MMPB, with any samples found to contain toxin quantified by use of a six point extracted matrix matched calibration curve in the range 0.010–0.25 µg/g dw using pooled control tissue of the relevant tissue, with calibrant levels achieved by spiking with the MMPB standard at a concentration of either 0.5 or 0.05 µg/mL after pH adjustment.
Conversion of any bound MC-LR and subsequent extraction was performed according to a modified method derived from Neffling et al. (2010) and developed using 50 mg aliquots of lyophilised homogenised, pooled porcine tissue from the control animals. 50 mg of tissue was weighed into a 50 mL round bottomed flask and 5 mL of oxidation solution at a concentration of 0.1 M was added, comprising both potassium permanganate (KMnO4) and sodium (meta) periodate (NaIO4) at 0.2 M mixed 1:1 v/v. The mixture was stirred at room temperature for 2 h whereby the colour of the solution turned from purple (colour of KMnO4) to red/brown (colour of the reduced product MnO2). A further 4 mL oxidation solution at 0.1 M was added turning the solution back to purple. The reaction was immediately quenched by addition of 1 mL sodium bisulphite solution (40% v/v). Following this, samples were transferred to 15 mL tubes and 10% sulphuric acid was added drop wise until the pH was acidic (~ 2). Samples were then centrifuged at 4 500 rpm for 15 min and the supernatant removed and loaded directly onto SPE cartridges.
Sample enrichment and clean-up was carried out using OASIS PRiME HLB cartridges, with samples loaded onto the cartridges, allowed to drip through under gravity then washed with water and 20% aqueous methanol (v/v). Bound MMPB was eluted into clean glass tubes using 2 x 1.5 mL 80% aqueous methanol (v/v) and the eluents evaporated to dryness under a gentle stream of nitrogen using a turbovap set at 45 °C. Samples were reconstituted in 100 µL 80% aqueous MeOH (v/v) and transferred to a micro vial for analysis.
Analysis of MMPB was performed as described above in ‘Analysis of free MC-LR and MC-LR-GSH in porcine tissues’. Detection and quantification was achieved using MRM, with MMPB seen as the [M + H]^+ ion and the transitions optimised manually as follows:
Separation was achieved using the same column and mobile phases as detailed above in ‘Analysis of free MC-LR in porcine serum’ with the flow rate set at 0.4 ml/min. The gradient used to achieve separation was as described above with the ACN initially held at 10%, then returned to 10% prior to the next injection.

[2] = Free MC-LR in porcine serum, experiment 1 (low dose), UPLC-MS/MS; details: pig, in vivo, po
Experimental: The animal studies were performed under licence (PPL 2755 - Chemical contaminants in food producing animals) issued by the Department of Health, Social Services and Public Safety in Northern Ireland (NI) in accordance with the Animal (Scientific Procedures) Act (1986), and under the approval of the Agri-Food and Biosciences Institute (AFBI) Animal Welfare and Ethical Review Body (AWERB) and associated EU Directive 2010/63/EU for animal experiments. The study was performed on behalf of Queen’s University Belfast (QUB) by the Veterinary Sciences Division, Agri-Food and Biosciences Institute, Belfast, Northern Ireland. […]
Following the acclimatization period of seven days, eight healthy pigs were selected randomly for the control group and the remaining eight healthy pigs assigned to the treatment group. Before treatment, animals were examined by a veterinarian to confirm clinical health and then weighed, with the weight and identification of animals in each group recorded. […]
Analysis was performed using an ACQUITY UPLC i-Class system coupled to a Xevo TQ-S (triple quadrupole MS/MS) Mass Spectrometer (Waters, Manchester, UK). Detection and quantification was achieved using targeted analysis using Multiple Reaction Monitoring (MRM) and operated in ESI^+ mode. […]

[3] = Free MC-LR in porcine tissues, experiment 1 (low dose), UPLC-MS/MS; details: pig, in vivo, po
Text: (§5) Following the acclimatization period of seven days, eight healthy pigs were selected randomly for the control group and the remaining eight healthy pigs assigned to the treatment group. Before treatment, animals were examined by a veterinarian to confirm clinical health and then weighed, with the weight and identification of animals in each group recorded. Over the study period (13 weeks), each animal from the treatment group received a low dose of MC-LR daily by oral gavage. The dose administered was 0.04 µg toxin/kg body weight, the provisional World Health Organization Tolerable Daily Intake (WHO TDI), based on the NOAEL derived from the animal experiment conducted by Fawell et al. (1999), with the average dose for the eight treated animals outlined in Table 3. Briefly, a 1 mg/mL solution of MC-LR was prepared by the addition of 250 µL of ethanol followed by 750 µL water. The appropriate dilutions were then performed depending on the weight of the animal to ensure the correct dose was administered in 5 mL of water.
Serum was collected weekly, starting at day -7 from treated and control animals as the pre-bleeds. […]
(§6) In order to quantify any toxins identified, a six-point extracted matrix-matched calibration curve in the range 0.001–0.1 μg/g dw was prepared using pooled control samples of the relevant tissue. […]

[4] = Bound MC-LR (MMPB) in porcine liver by Lemieux oxidation, experiment 1; details: pig, in vivo, po
Text: as §5, with “Briefly, a 1 mg/mL solution of MC-LR was prepared by the addition of 250 µL of ethanol followed by 750 µL water. The appropriate dilutions were then performed depending on the weight of the animal to ensure the correct dose was administered in 5 mL of water.” left out
as §4, with “adjustment. […]” for “adjustment.”

[5] = Free MC-LR in porcine serum, experiment 2 (high dose), UPLC-MS/MS; details: pig, in vivo, po
Experimental: as §1, §2
, with the MC-LR for dosing prepared as described above. At day 40 (approximately 5 weeks) treated and control animals were euthanized. Sample collection and storage was as outlined for experiment 1. […]
Analysis was performed using an ACQUITY UPLC i-Class system coupled to a Xevo TQ-S (triple quadrupole MS/MS) Mass Spectrometer (Waters, Manchester, UK). Detection and quantification was achieved using targeted analysis using Multiple Reaction Monitoring (MRM) and operated in ESI^+ mode. Analyte precursor ions were identified as [M + H]^+ for both MC-LR and NOD (IS) with the quantifying (Q) and qualifying (q) ions used as follows:
To quantify any MC-LR detected, a seven point extracted matrix matched calibration curve in the range 0.2-100 ng/mL serum was prepared using the ‘negative’ porcine serum. […]

[6] = Free MC-LR in porcine tissues, experiment 2 (high dose), UPLC-MS/MS; details: pig, in vivo, po
Experimental: as §1, §2, §3
Tissue samples (see Supplementary Information online) (100 mg) were spiked with 10 μL of the NOD (IS) at 0.5 μg/mL and extracted by addition of 1.5 mL of 80% aqueous MeOH (v/v) (0.5% acetic acid v/v), vortex mixed briefly and sonicated at 35–40 °C for 45 min before centrifugation at 16 000 g for 15 min. […]
as §6

[7] = Parent ion scan of Adda fragment (m/z 135) in porcine serum; details: pig, in vivo
Experimental: With MC-LR and its congeners, as well as any potential metabolites of MC-LR having in common the shared Adda group ((2S, 3S, 8S, 9S)-3-amino-9-methoxy-2, 6, 8-trimethyl-10-phenyldeca-4(E), 6(E)-dienoic acid) (Fig. 1)[8], serum samples were analysed for parent ions of Adda, with this fragment having an m/z of 135. This was optimised using the MC-LR standard and indicated a peak at the same retention time as when analysed in MRM mode, with the retention window extended to allow identification of any potential MC-LR metabolites.
A selection of serum sample time points from experiment (1) were chosen (n = 32), with; t = 14, t = 42, t = 70 and t = 98 correlating to the start, one, two and three months of treatment for each animal, as well as serum from all time points (n = 36) for each animal from experiment (2).

[8] = in vivo, cited from earlier work
Experimental: Looking at the study by Tencalla et al. (1997) in which rainbow trout were dosed with MC-LR also via oral gavage, they estimated the uptake of MC-LR into blood to be approximately 4.4% of the dose administered of 5700 µg MC-LR/kg bw[51]. Based on the findings reported by Tencalla et al. and taking the average bodyweight of the six animals in the final week of dosing in experiment (2) of our study, the average dose administered to the six animals equates to 96 µg of MC-LR per day for the last week. […].

[9] = mouse, in vivo, iv; cited from earlier work
Experimental: […]. In another experiment conducted by Robinson et al. (1991) using radiolabelled MC-LR to track its distribution in mice, levels of radiolabelled MC-LR peaked in the liver after only 30 min[52], although in this case the mice were injected intravenously via the tail vein rather than by oral g ...

COC(Cc1ccccc1)C(C)C(=O)O (stereo not drawn) [MMPB, 2-methyl-3-methoxy-4-phenylbutyric acid]
concentration of MMPB detected in liver (average estimated value) ([1]; livers of T2, T4 and T5, MC-LR oral gavage 2 µg/kg bw daily, Lemieux oxidation, dry weight): 14.4 ng/g dw

Microcystin-LR [MC-LR]
free MC-LR in serum [2]: < 0.03 ng/mL | free MC-LR in liver, kidney, large and small intestine tissues [3]: none of the tissues contained any trace | bound MC-LR (MMPB) in liver tissue [4]: negative | free MC-LR in serum [5]: negative | free MC-LR in all other tissue samples (liver, kidney, small and large intestine, spleen, brain) [6]: free of MC-LR residues | MC-LR present in liver ([1]; in vivo): 23.1 µg and 21.9 µg and 34.1 µg | Uptake of MC-LR by liver as percentage of the dose administered ([1]; in vivo): 1.1% and 0.8% and 1.5% | average amount of bound MC-LR accumulated in liver ([1]; in vivo): 26.4 ± 5.5 µg | average uptake of MC-LR by liver as percentage of total dose administered ([1]; in vivo): 1.1% | estimated bound MC-LR in liver (average) ([1]; in vivo): 23.2 ng/g ww | peaks in parent ion scan of Adda fragment m/z 135 in serum (free MC-LR or MC-LR metabolites) [7]: negative | uptake of MC-LR into blood as percentage of dose administered ([8]; po): approximately 4.4% | uptake of MC-LR into the liver ([8]; po): 1.7% | half-life in the blood [8]: 3.3 h | time after which the liver indicated the presence of MC-LR [8]: 1 h | time of maximum levels in the liver after exposure [8]: 3 h | time at which levels of radiolabelled MC-LR peaked in the liver [9]: 30 min
